Experimental data published in the NIST ThermoML archive (doi:10.1021/je101173w).
Numbers after ± are expanded uncertainties.

Test: mn = molality of the nth substance listed, in mol/kg
Conditions: 101 kPa, Liquid; for viscosity: Capillary tube (Ostwald / Ubbelohde) method; for mass density: Vibrating tube method

Oc1cccc(O)c1 [1,3-benzenediol] + CCCCO
Conditions	mass density, 293.15 K [kg/m3]	mass density, 303.15 K [kg/m3]	mass density, 313.15 K [kg/m3]	mass density, 323.15 K [kg/m3]	mass density, 333.15 K [kg/m3]	viscosity, 293.15 K [mPa·s]	viscosity, 303.15 K [mPa·s]	viscosity, 313.15 K [mPa·s]	viscosity, 323.15 K [mPa·s]	viscosity, 333.15 K [mPa·s]
m1 = 1.016	844.32 ± 0.16	836.69 ± 0.16	828.92 ± 0.16	821.01 ± 0.16	812.92 ± 0.16	4.518 ± 0.027	3.357 ± 0.021	2.54 ± 0.016	1.972 ± 0.012	1.674 ± 0.011
m1 = 2.196	878.29 ± 0.15	870.07 ± 0.15	862.36 ± 0.15	854.51 ± 0.15	846.52 ± 0.15	7.007 ± 0.039	5.06 ± 0.03	3.71 ± 0.023	2.809 ± 0.017	2.33 ± 0.014
m1 = 3.586	910.51 ± 0.14	902.98 ± 0.14	895.33 ± 0.14	887.57 ± 0.14	879.68 ± 0.15	11.56 ± 0.061	8.021 ± 0.044	5.552 ± 0.033	4.091 ± 0.025	3.274 ± 0.02
m1 = 5.247	942.6 ± 0.13	935.1 ± 0.13	927.53 ± 0.13	919.86 ± 0.14	912.09 ± 0.14	19.75 ± 0.1	12.64 ± 0.066	8.601 ± 0.047	6.096 ± 0.035	4.84 ± 0.029
m1 = 7.265	974.13 ± 0.13	966.7 ± 0.13	959.2 ± 0.13	951.6 ± 0.13	943.92 ± 0.13	34.34 ± 0.17	20.69 ± 0.11	13.18 ± 0.069	8.804 ± 0.048	6.635 ± 0.037

Oc1cccc(O)c1 [1,3-benzenediol] + CCCO
Conditions	mass density, 293.15 K [kg/m3]	mass density, 303.15 K [kg/m3]	mass density, 313.15 K [kg/m3]	mass density, 323.15 K [kg/m3]	mass density, 333.15 K [kg/m3]	viscosity, 293.15 K [mPa·s]	viscosity, 303.15 K [mPa·s]	viscosity, 313.15 K [mPa·s]	viscosity, 323.15 K [mPa·s]	viscosity, 333.15 K [mPa·s]
m1 = 1.252	846.41 ± 0.15	838.23 ± 0.16	830.12 ± 0.16	821.85 ± 0.16	813.35 ± 0.16	3.605 ± 0.022	2.74 ± 0.017	2.133 ± 0.013	1.675 ± 0.011	1.374 ± 0.0088
m1 = 2.709	886.87 ± 0.14	878.7 ± 0.15	870.62 ± 0.15	862.49 ± 0.15	854.18 ± 0.15	6.043 ± 0.035	4.375 ± 0.026	3.292 ± 0.02	2.465 ± 0.015	1.952 ± 0.012
m1 = 4.423	924.61 ± 0.14	916.62 ± 0.14	908.69 ± 0.14	900.65 ± 0.14	892.48 ± 0.14	10.37 ± 0.056	7.225 ± 0.041	5.137 ± 0.031	3.736 ± 0.023	2.862 ± 0.018
m1 = 6.471	960.5 ± 0.13	952.55 ± 0.13	944.74 ± 0.13	936.83 ± 0.13	928.84 ± 0.13	18.52 ± 0.096	12.05 ± 0.064	8.179 ± 0.045	5.696 ± 0.033	4.195 ± 0.025
m1 = 8.959	994.1 ± 0.12	986.39 ± 0.12	978.72 ± 0.12	970.97 ± 0.13	963.1 ± 0.13	33.22 ± 0.16	20.29 ± 0.1	12.82 ± 0.068	8.199 ± 0.045	6.412 ± 0.036
